{"source": "patent US20160015770A1", "about": "“COMPOSITIONS FOR TREATMENT OF RETINAL DETACHMENT” (THE REGENTS OF THE UNIVERSITY OF MICHIGAN, priority 2013, published 2016)", "key": {"detached retina [1]": {"tested_on": "detached retina", "test": "Experimental retinal detachment, western blot of autophagy markers (Atg5, Atg5-12, LC3-II) in retina", "assay_type": "in vivo", "conditions": "rat, 50 μg subretinal at time of detachment, 7 days, vs detachments alone", "protocol": "All experiments were performed in accordance with the ARVO Statement for the Use of Animals in Ophthalmic and Vision Research and the guidelines established by the University Committee on Use and Care of Animals of the University of Michigan. Detachments were created in adult male Brown-Norway rats (300-400 g; Charles River Laboratories, Wilmington, Mass.) as described previously. Briefly, rodents were anesthetized with a 50:50 mix of ketamine/xylazine, and pupils were dilated with topical phenylephrine (2.5%) and tropicamide (1%). A 20-gauge microvitreoretinal blade was used to create a sclerotomy 2 mm posterior to the limbus, carefully avoiding lens damage. A subretinal injector (Glaser, 32-gauge tip; BD Ophthalmic Systems, Franklin Lakes, N.J.) was introduced through the sclerotomy into the vitreous cavity and then through a peripheral retinotomy into the subretinal space. Sodium hyaluronate (10 mg/mL, Healon OVD; Abbott Medical Optics, Uppsala, Sweden) was slowly injected to detach the neurosensory retina from the underlying RPE. In all experiments, approximately one third to one half of the neurosensory retina was detached. Detachments were created in the left eye. The right eye served as the control, with all the steps of the procedure performed except for introduction of the subretinal injector and injection of the sodium hyaluronate. […]\nRetinas from experimental eyes with detachment (detached portion of retina only) and control eyes without detachment were dissected from the RPE-choroid, homogenized, and lysed in buffer containing 10 mM HEPES (pH 7.6), 0.5% IgEPal, 42 mM KCl, 1 mM phenylmethylsulfonyl fluoride, 1 mM EDTA, 1 mM EGTA, 1 mM dithiothreitol, 5 mM MgCl2, and one tablet of protease inhibitors per 10 mL buffer (Complete Mini; Roche Diagnostics GmbH, Madison, Wis.). […] The protein concentration of the supernatant was then determined (DC Protein Assay kit; Bio-Rad Laboratories, Hercules, Calif.). The protein samples were separated on SDS-polyacrylamide gels (Tris-HCl Ready Gels; Bio-Rad Laboratories). […]"}, "detached retina [2]": {"tested_on": "detached retina", "conditions": "7 days, compared to untreated detached retinas, prior work (ref 12); cited from earlier work"}, "calpain 1": {"target": "T1, calpain 1 (Mus musculus, UniProt O35350)", "T1 construct": "endogenous in cells; host or cells: 661W mouse photoreceptor cell line", "T1 sequence (O35350 1-713)": "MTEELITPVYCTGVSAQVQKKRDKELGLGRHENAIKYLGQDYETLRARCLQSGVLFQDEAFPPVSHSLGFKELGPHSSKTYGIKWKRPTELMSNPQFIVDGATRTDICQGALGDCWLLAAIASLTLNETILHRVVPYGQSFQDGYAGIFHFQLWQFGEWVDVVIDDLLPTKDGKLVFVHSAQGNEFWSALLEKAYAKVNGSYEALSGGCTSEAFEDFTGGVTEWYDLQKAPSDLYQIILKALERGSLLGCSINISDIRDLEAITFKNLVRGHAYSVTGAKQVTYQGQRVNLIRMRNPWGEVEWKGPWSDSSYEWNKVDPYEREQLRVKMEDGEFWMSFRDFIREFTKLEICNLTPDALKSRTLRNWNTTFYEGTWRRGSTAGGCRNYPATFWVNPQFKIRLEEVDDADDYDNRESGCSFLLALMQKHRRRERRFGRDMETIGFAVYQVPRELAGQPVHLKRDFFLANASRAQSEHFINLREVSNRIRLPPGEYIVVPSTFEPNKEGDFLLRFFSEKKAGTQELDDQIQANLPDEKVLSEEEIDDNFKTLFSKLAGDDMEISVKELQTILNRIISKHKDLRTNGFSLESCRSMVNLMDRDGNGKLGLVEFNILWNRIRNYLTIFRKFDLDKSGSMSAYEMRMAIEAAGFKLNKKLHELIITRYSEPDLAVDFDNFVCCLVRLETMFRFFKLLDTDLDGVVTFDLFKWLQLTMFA", "T1 sequence (O88456 1-268 partner)": "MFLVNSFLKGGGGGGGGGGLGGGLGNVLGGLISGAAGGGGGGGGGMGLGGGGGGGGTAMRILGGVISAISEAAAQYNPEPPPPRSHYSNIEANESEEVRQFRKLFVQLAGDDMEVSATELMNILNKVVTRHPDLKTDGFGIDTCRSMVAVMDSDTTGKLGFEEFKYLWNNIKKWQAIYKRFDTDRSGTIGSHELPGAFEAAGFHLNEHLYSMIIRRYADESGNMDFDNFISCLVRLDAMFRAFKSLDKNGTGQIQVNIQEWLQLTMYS", "test": "Western blot of calpain 1 specific cleaved alpha-spectrin in 661W cells treated with Fas activating antibody", "assay_type": "cell-based", "conditions": "24 hours, inhibitor added 1 hour before Fas activating antibody, compared to Fas activation alone", "protocol": "The 661W photoreceptor cell line was generously provided by Dr. Muayyad Al-Ubaidi (Department of Cell Biology, University of Oklahoma Health Sciences Center, Oklahoma City, Okla.). The 661W cell line was maintained in Dulbecco's modified Eagle's medium containing 10% fetal bovine serum, 300 mg/L glutamine, 32 mg/L putrescine, 40 μL/L β-mercaptoethanol, and 40 μg/L of both hydrocortisone 21-hemisuccinate and progesterone. The media also contained penicillin (90 units/mL) and streptomycin (0.09 mg/mL). Cells were grown at 37° C. in a humidified atmosphere of 5% CO2 and 95% air.\nRetinas from experimental eyes with detachment (detached portion of retina only) and control eyes without detachment were dissected from the RPE-choroid, homogenized, and lysed in buffer containing 10 mM HEPES (pH 7.6), 0.5% IgEPal, 42 mM KCl, 1 mM phenylmethylsulfonyl fluoride, 1 mM EDTA, 1 mM EGTA, 1 mM dithiothreitol, 5 mM MgCl2, and one tablet of protease inhibitors per 10 mL buffer (Complete Mini; Roche Diagnostics GmbH, Madison, Wis.). 661W cells were plated at 150,000 cells per well in six-well culture dishes in growth media. After 24 hours, the cells were washed one time with warmed PBS solution and then placed in growth media without fetal bovine serum. Depending on experimental conditions, 500 ng/mL Fas activating antibody (BD Biosciences, San Jose, Calif.) and various calpain inhibitors including MDG-28170 (Sigma, St. Louis, Mo.), MG-101 (Sigma, St. Louis, Mo.), calpeptin (Santa Cruz Biotechnology, Santa Cruz, Calif.) or equal volume of DMSO was added. Calpain inhibitors were added 1 hour prior to the addition of Fas activating antibody. The cells were incubated for various lengths of time and then lysed and homogenized in lysis buffer. The homogenates were incubated on ice and centrifuged at 22,000 g at 4° C. for 60 minutes. The protein concentration of the supernatant was then determined (DC Protein Assay kit; Bio-Rad Laboratories, Hercules, Calif.). The protein samples were separated on SDS-polyacrylamide gels (Tris-HCl Ready Gels; Bio-Rad Laboratories). After electrophoretic separation, the proteins were transferred onto polyvinylidene fluoride membranes (Immobilon-P; Millipore, Billerica, Mass.). Membranes were then immunoblotted with antibodies according to the manufacturer's instructions. The following antibodies were used: LC3b (Cell Signaling, Beverly, Mass.), Atg5 (Abgent, San Diego, Calif.), Atg12 (Cell Signaling, Beverly, Mass.), calpain 1 (Cell Signaling, Beverly, Mass.), alpha-spectrin (Santa Cruz Biotechnology, Santa Cruz, Calif.), actin (Sigma, St. Louis, Mo.), and GAPDH (Abcam, Cambridge, Mass.).\nAfter determining calpain 1 levels, it was looked to correlate this with calpain activity. […]"}}, "note": "Non-standard residues stand in square brackets, D forms with d. Residues, ends and D or L forms follow the SMILES beside them. *: point of attachment. Nle = CCCC[C@H](N)C(=O)O; Cbz = O=C(OCc1ccccc1)*"}
{"compound": "CO/C1=C\\C(C)=C\\[C@@H](C)[C@@H](O)[C@@H](C)C/C(C)=C/C=C/[C@H](OC)[C@@H]([C@@H](C)[C@@H](O)[C@H](C)[C@@]2(O)C[C@@H](O)[C@H](C)[C@@H](C(C)C)O2)OC1=O", "note": "[Bafilomycin-a]", "values": [{"measurement": "Atg5-12 levels in retina", "setting": "detached retina [1]", "result": "did not appear to be any increase"}, {"measurement": "Atg5-12 levels in retina", "setting": "detached retina [1]; listed as Baf-a", "result": "no significant difference"}, {"measurement": "LC3-II level in retina", "setting": "detached retina [2]", "result": "remain elevated"}]}
{"compound": "CC(C)[C@H](NC(=O)OCc1ccccc1)C(=O)N[C@H](C=O)Cc1ccccc1", "note": "[MDG-28170] (Cbz-Val-Phe-aldehyde)", "values": [{"measurement": "cleaved alpha-spectrin levels", "setting": "calpain 1", "result": "decreased"}]}
{"compound": "CCCC[C@@H](C=O)NC(=O)[C@H](CC(C)C)NC(=O)[C@H](CC(C)C)NC(C)=O", "note": "[MG-101] (Ac-Leu-Leu-[Nle]-aldehyde)", "values": [{"measurement": "cleaved alpha-spectrin levels", "setting": "calpain 1", "result": "decreased"}]}
